One data set addresses T1, ALDH1A1 (Homo sapiens, UniProt P00352).
T1 construct: purchased R & D Systems, Inc, Minneapolis, Minn., USA
T1 sequence (P00352 1-501): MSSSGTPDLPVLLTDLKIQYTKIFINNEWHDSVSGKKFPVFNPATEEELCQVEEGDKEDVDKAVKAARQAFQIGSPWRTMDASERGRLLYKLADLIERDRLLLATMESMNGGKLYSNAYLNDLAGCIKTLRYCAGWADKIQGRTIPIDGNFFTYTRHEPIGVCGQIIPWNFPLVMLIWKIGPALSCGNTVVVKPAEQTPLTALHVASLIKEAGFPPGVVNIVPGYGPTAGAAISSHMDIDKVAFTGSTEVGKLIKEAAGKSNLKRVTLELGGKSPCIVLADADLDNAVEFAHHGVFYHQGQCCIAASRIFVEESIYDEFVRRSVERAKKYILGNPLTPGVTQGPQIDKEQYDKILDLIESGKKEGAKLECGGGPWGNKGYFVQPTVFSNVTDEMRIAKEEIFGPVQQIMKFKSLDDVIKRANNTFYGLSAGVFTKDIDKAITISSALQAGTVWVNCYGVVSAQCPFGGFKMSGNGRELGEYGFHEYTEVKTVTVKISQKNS
Nature of the data set: ALDH isoform-specific enzyme assay (NADH absorbance 340 nm). It is filed as biochemical. The settings on record: Study 1; read-out: IC50s ALDH1A1.

In the next data set the target is T2, ALDH2 (Homo sapiens, UniProt P05091).
T2 construct: purchased R & D Systems, Inc, Minneapolis, Minn., USA
T2 sequence (P05091 18-517): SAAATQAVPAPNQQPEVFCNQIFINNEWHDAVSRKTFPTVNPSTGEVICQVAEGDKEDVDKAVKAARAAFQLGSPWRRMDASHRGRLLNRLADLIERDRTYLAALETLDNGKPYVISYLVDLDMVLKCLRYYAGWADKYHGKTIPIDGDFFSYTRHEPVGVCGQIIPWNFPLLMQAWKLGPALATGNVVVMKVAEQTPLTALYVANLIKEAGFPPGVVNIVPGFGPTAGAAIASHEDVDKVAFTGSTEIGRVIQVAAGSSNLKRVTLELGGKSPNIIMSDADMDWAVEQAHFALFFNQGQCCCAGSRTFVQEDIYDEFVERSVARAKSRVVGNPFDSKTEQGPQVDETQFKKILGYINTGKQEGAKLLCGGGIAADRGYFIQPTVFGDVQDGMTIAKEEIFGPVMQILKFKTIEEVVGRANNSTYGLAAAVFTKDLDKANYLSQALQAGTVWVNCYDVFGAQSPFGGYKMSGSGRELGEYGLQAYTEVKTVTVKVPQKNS
Described as above. It is filed as biochemical. The following applies: Study 1; read-out: IC50s ALDH2.

The subject of data set [1] is HCT116 cells. The experiment in a line: Apoptosis by Annexin-V/7-AAD with or without NAC. The format is cell-based, human. Further details: dose or concentration left out as unconfirmed. The following applies: vs DMSO or 3a. On the procedure:
(§1) FIGS. 30A-30F. […] ROS levels were measured using DCFDA dye and compared to DMSO control. Malondialdehyde (MDA) levels were measured in colon cancer cell line HCT116 using thiobarbituric acid and compared to DMSO control (FIG. 30C). Cell survival assay was performed by MTS assay (FIG. 30D), apoptosis by Annexin-V/7-AAD (FIG. 30E) and cell cycle by propidium iodide staining in colon cancer cell line HCT116 (FIG. 30F).
(§2) Further, the effect of the addition of NAC on the antiproliferative and apoptotic activity of ALDH inhibitors was also evaluated.

For data set [2], the system named is HCT116 cells. The experiment in a line: Cell cycle by propidium iodide staining with or without NAC. The format is cell-based, human. On the procedure:
as §1, §2

The nature of data set [3]: Toxicity study, 14 days i.p. It is filed as in vivo, Swiss-Webster mice. The settings on record: 5 mg/kg/day i.p. for 14 days, vs DMSO. On the procedure: To determine the toxicity of 3(h-l), compounds were injected i.p. into Swiss-Webster mice once daily for 14 days (Id.). Animals were monitored for changes in body weight, behavior and physical distress compared to DMSO control.

For another data set, the system named is HCT116 and HT29 cells. Nature of the data set: ROS assay (DCFDA), Study 2, with or without NAC. It is filed as cell-based, human.
In data set [4] the test system is HCT116 cells. The experiment in a line: Cell survival MTS assay with or without NAC. The format is cell-based, human. Here is the method:
as §1, §2

The test system of data set [5] is total cellular ALDH activity, 1205 Lu cell lysates. The experiment in a line: Total cellular ALDH activity in cell lysates. The settings on record: 1 uM inhibitor, 15 minutes. The format is biochemical, human. The text has this: (§3) The ALDHs reduce ROS, lipid peroxidation and toxic aldehyde accumulation, the latter of which can lead to cell damage and apoptosis as shown in FIG. 6A. Thus, inhibition of total cellular ALDH activity can increase toxic aldehydes, oxidative damage and apoptosis.

For data set [6], the system named is total cellular ALDH activity, UACC 903 cell lysates. The experiment in a line: Total cellular ALDH activity in cell lysates. It is filed as biochemical, human. The following applies: 1 uM inhibitor, 15 minutes.
Description: as §3

Another data set deals with T3, ALDH3A1 (Homo sapiens, UniProt P30838).
T3 construct: purchased R & D Systems, Inc, Minneapolis, Minn., USA
T3 sequence (P30838 1-453): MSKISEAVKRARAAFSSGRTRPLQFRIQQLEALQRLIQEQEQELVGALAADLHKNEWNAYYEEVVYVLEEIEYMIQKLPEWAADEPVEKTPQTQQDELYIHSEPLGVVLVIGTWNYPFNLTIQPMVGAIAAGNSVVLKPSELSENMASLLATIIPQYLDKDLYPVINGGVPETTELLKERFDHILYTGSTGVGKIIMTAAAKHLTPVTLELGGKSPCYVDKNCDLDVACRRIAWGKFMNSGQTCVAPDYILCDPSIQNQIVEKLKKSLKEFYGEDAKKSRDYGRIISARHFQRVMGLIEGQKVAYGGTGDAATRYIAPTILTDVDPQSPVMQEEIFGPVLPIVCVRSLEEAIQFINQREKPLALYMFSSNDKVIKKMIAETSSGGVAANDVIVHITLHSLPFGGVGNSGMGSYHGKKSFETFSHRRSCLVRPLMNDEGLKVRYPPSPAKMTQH
Nature of the data set: ALDH isoform-specific enzyme assay (NADH absorbance 340 nm). The format is biochemical.

For a further data set, the system named is UACC 903 cells. The experiment in a line: Cell viability MTS assay, UACC 903. It is filed as cell-based, human. The settings on record: 100 μM, 72 hours. A general note: Tetrazolium dyes change colour on reduction, which living cells bring about.
Where [7] appears, read: Study 1, read-out: IC50s ALDH3A1.

Read-outs that look alike come from different tables or passages of the source.

Description for ALDH1A1: (§4) ALDH enzyme assays were performed using a kit as described by the kit manufacturer (R & D Systems, Inc, Minneapolis, Minn., USA). Isoform-specific aldehydes were converted to their respective carboxylic acids along with conversion of NAD+ to NADH (absorbance at 340 nm). […] Similarly, 0.5 μg/mL of ALDH2 was used in the reaction with 2 mM of acetaldehyde as the substrate and 0.2 μg/mL of ALDH3A1 was used in the reaction with 1 mM of 4-nitrobenzaldehyde (4-NBA) as the substrate following addition of ALDH inhibitors.
(§5) ALDH1A1, 2 and 3A1 enzyme assays were performed as described by the manufacturer (R & D systems). Isoform-specific aldehydes were converted to their respective carboxylic acids along with the conversion of NAD+ to NADH (absorbance at 340 nm).
Description for ALDH2: as §4, §5
Description for ALDH3A1: as §4, §5
Description for HCT116 and HT29 cells: ROS activity was measured using DCFDA dye^51. […] Cells were incubated with 10 μM of DCFDA for 1 hour, and fluorescence was measured at 485 nm excitation and 510 nm emission. ROS levels in treated cells were compared to DMSO control.
Description for UACC 903 cells: Cell viability assays of UACC 903 cells transfected with siRNA, and melanoma cell lines (UACC 903, 1205 Lu, C8161.CI9, MelJuSo), FF2441 and NHEM cells treated with ALDH inhibitors were performed. For this, 5,000 cells per well were plated in a 96-well plate and incubated overnight at 37° C. in a 5% CO2 atmosphere. For the siRNA knockdown experiment, cells were incubated for another 72 hours. For the ALDH inhibitor experiments, cells were treated with agents at various concentrations and incubated for 72 hours. 20 μL of MTS reagent was then added into each well and formation of tetrazolium was measured by absorbance after 1 hour at 492 nm. IC50 values or % cells for each experimental group were measured in three independent experiments using GraphPad Prism version 7.04 (GraphPad Software, La Jolla, Calif.).
Briefly, 3,000 cells per well were plated in a 96-well plate and incubated overnight at 37° C. in a 5% CO2 atmosphere. […] 20 μL of MTS reagent was then added into each well and formation of tetrazolium was measured by absorbance after 1 hour at 492 nm. IC50 values for each experimental group were measured in 3 independent experiments using GraphPad Prism version 7.04 (GraphPad Software, La Jolla, Calif.).

For the compound `Cc1nc2ccccc2n1S(=O)(=O)c1ccc(F)cc1` [CB7], the results for the IC50 on ALDH1A1 and on ALDH2 were 139 µM and 144 µM, respectively.

Regarding `Br.N=C(N)SCc1ccc(CN2C(=O)C(=O)c3cc(C(F)(F)F)ccc32)cc1` [Compound 3h, 2-[4-(2,3-Dioxo-5-trifluoromethyl-2,3-dihydroindol-1-ylmethyl)benzyl]isothiourea hydrobromide], the “percentage of cells both Annexin-V and 7-AAD positive” value in the data set on HCT116 cells [1] is given as “significantly higher”. In addition, the cell cycle effect result with HCT116 cells [2] (HCT116) is “G2/M arrest”. The “cell cycle effect on addition of NAC” value in the data set with HCT116 cells [2] (HCT116, with NAC) is reported as “reversed”. Also, the weight loss entry in [3] was “no significant weight loss”. In the data set with HCT116 and HT29 cells (5 μM, 24 hours, vs DMSO), the ROS levels result was “significantly increased”. Further, the “ROS-inducing activity on addition of NAC” value in the data set on HCT116 and HT29 cells (with N-Acetyl Cysteine (NAC)) is on record as “abrogated”. Besides, in the data set on HCT116 cells [4], the “increase of cell killing IC50 by addition of NAC” value was determined as 6 fold.

On to `CCOC(=O)CSc1nc2c(sc3ccccc32)c(=O)n1CCCN1CCCC1` [CM037], for which, in data set [5], the “reduction of total cellular ALDH activity, 1205 Lu” value (“reduction … 1205 Lu” for short) is “significantly reduced”. Also, the “reduction of total cellular ALDH activity, UACC 903” value in data set [6] was “significantly reduced”.

As to `O=C1Nc2ccccc2C1=O` [Isatin], the “reduction … 1205 Lu” value in [5] was “ineffective”. The “reduction of total cellular ALDH activity, UACC 903” value in [6] is recorded as “ineffective”. The IC50 was found to be 15.6 µM on ALDH1A1, 5.05 µM at ALDH3A1 (setting [7]) and 169 µM on ALDH2.

Turning to `CCN(CC)c1ccc(C=O)cc1` [DEAB], the “reduction … 1205 Lu” value in [5] was “significantly reduced”. In [6], the “reduction of total cellular ALDH activity, UACC 903” value is recorded as “significantly reduced”. Further, the IC50 stood at 15.1 µM at ALDH3A1 (Study 1, text, read-out: IC50 ALDH3A1) and 15.1 µM on ALDH3A1 (setting [7]). Besides, in the data set on UACC 903 cells, the “reduction of UACC 903 cell survival” value is reported as 30%.
